# What was measured:
# [1] = Body weight and food intake in the OLC+Tenapanor Combo Study (Example 1); details: rat, in vivo
# Protocol: FIG. 1. Represents the Study Design of the OLC+Tenapanor Combo Study described in Example 1. The study consisted of acclimatization, randomization, in vivo study period, and termination. Animals were acclimated from Day-7 to Day-4. On study Day-1, animals were randomized into eight groups: one vehicle; one tenapanor (0.15 mg/kg); three oxylanthanum carbonate (OLC) (0.75%, 1.5%, and 3%); and three combination treatment with OLC and tenapanor (OLC 0.75%, 1.5%, and 3%+tenapanor 0.15 mg/kg). On study Day 1, animals were switched to high phosphorus diets. Animals were euthanized on Day 11 two hours post last dose. Legend: 1 Body weight and food intake were measured daily from study Day-3 until termination. 2 During the in vivo study period (Days 1 to 11), vehicle and tenapanor were dosed orally twice/day whereas OLC was incorporated into the diets. 3 Urine samples were collected on Days 9, 10, and 11 for phosphate measurements and blood samples were collected for serum phosphate and sodium measurements on day 11 after the final urine sampling. Sixty-four male Sprague Dawley rats of 9 weeks old (11 weeks by the end of the study) were fed standard chow one week prior to study start. […] Body weight and food intake were measured daily from study Day-3 until termination. […] The mean body weight (FIG. 2A) and food intake (FIG. 2B) were measured from Day 1 to 11.
# Sprague Dawley rats = test: Urinary phosphate excretion in rats fed a high phosphorus diet (OLC+Tenapanor Combo Study, Example 1); type: in vivo, rat; details: Days 9 to 11
# Protocol: FIG. 1. Represents the Study Design of the OLC+Tenapanor Combo Study described in Example 1. The study consisted of acclimatization, randomization, in vivo study period, and termination. Animals were acclimated from Day-7 to Day-4. On study Day-1, animals were randomized into eight groups: one vehicle; one tenapanor (0.15 mg/kg); three oxylanthanum carbonate (OLC) (0.75%, 1.5%, and 3%); and three combination treatment with OLC and tenapanor (OLC 0.75%, 1.5%, and 3%+tenapanor 0.15 mg/kg). On study Day 1, animals were switched to high phosphorus diets. Animals were euthanized on Day 11 two hours post last dose. Legend: 1 Body weight and food intake were measured daily from study Day-3 until termination. 2 During the in vivo study period (Days 1 to 11), vehicle and tenapanor were dosed orally twice/day whereas OLC was incorporated into the diets. 3 Urine samples were collected on Days 9, 10, and 11 for phosphate measurements and blood samples were collected for serum phosphate and sodium measurements on day 11 after the final urine sampling. Sixty-four male Sprague Dawley rats of 9 weeks old (11 weeks by the end of the study) were fed standard chow one week prior to study start. On study day-1, animals were randomized into 8 study groups (n=8): 1) vehicle, 2) tenapanor 0.15 mg/kg, 3) Vehicle+OLC 0.75%, 4) Vehicle+OLC 1.5%, 5) Vehicle+OLC 3%, 6) tenapanor 0.15 mg/kg+OLC 0.75%, 7) tenapanor 0.15 mg/kg+OLC 1.5%, and 8) tenapanor 0.15 mg/kg+OLC 3%. Vehicle and tenapanor were dosed PO twice/day whereas OLC was incorporated into the diets. On study Day 1, all animals were switched to high phosphorus diets consisting of chow spiked with 0.4% inorganic phosphorus [(1:1 sodium:potassium salt-wt./wt.), 1.1% total phosphorus content] for the rest of the study. Body weight and food intake were measured daily from study Day-3 until termination. 24-hour urine samples were collected using metabolic cages on day 9, 10, and 11 for urinary P measurements. Mean urinary phosphate excretion for each animal from Days 9 to 11 were averaged by treatment group. While we examined effects separately in each OLC dose group, our primary analyses compared pooled results in the three OLC dose groups combined. We compared pooled results using one-way ANOVA followed by Games-Howell test, and individual groups with vehicle using one-way ANOVA followed by Dunnett's multiple comparison test. A threshold of p<0.05 was used to determine significant differences between groups. Statistical Package for the Social Sciences (SPSS) was used for all statistical analyses. The Bliss model of independence was employed to determine if the combination of OLC and tenapanor was independent, synergistic, or antagonistic. (Zhao W, et al. J Biomol Screen June 2014; 19 (5): 817-821). The Bliss model compares the predicted combination response, calculated using the complete additivity of probability theory based on the observed effect of each individual agent administered alone, with the observed effect of combination treatment. The mean percentage reduction in urinary phosphate excretion relative to vehicle by treatment group was calculated by averaging urinary phosphate excretion for each animal from Days 9 to 11. Paired t-tests were conducted to assess the statistical significance between observed and predicted results. 2-tailed p-values<0.05 are considered to be statistically significant.
# [2] = clinical trials; % of patients; cited from earlier work
# [3] = Games-Howell post-hoc, OLC = average of 0.75%, 1.5%, 3% in chow, tenapanor 0.15 mg/kg/po/bid
smiles,measurement,setting,value
"CN1Cc2c(Cl)cc(Cl)cc2[C@H](c2cccc(S(=O)(=O)NCCOCCOCCNC(=O)NCCCCNC(=O)NCCOCCOCCNS(=O)(=O)c3cccc([C@@H]4CN(C)Cc5c(Cl)cc(Cl)cc54)c3)c2)C1.Cl.Cl [Tenapanor, 12,15-Dioxa-2,7,9-triazaheptadecanamide, 17-[[[3-[(4S)-6,8-dichloro-1,2,3,4-tetrahydro-2-methyl-4-isoquinolinyl]phenyl]sulphonyl]amino]-N-[2-[2-[2-[[[3-[(4S)-6,8-dichloro-1,2,3,4-tetrahydro-2-methyl-4-isoquinolinyl]phenyl]sulphonyl]amino]ethoxy]ethoxy]ethyl]-8-oxo-, hydrochloride (1:2)]",food intake compared with vehicle,[1],not significantly affected
same,mean urinary phosphate excretion lower compared to the vehicle group,"Sprague Dawley rats; tenapanor 0.15 mg/kg PO bid, OLC pooled across 0.75, 1.5 and 3% in chow, n=8 per treatment group",8.5 mg/day
same,"Mean Difference (A − B) in mean urinary phosphate excretion, Treatment Group (A) = Vehicle, (B) = labelled treatment",Sprague Dawley rats; [3],8.510 mg/day
same,"Mean Difference (A − B) in mean urinary phosphate excretion, Treatment Group (A) = labelled treatment, (B) = OLC",Sprague Dawley rats; [3],3.583 mg/day
same,"Mean Difference (A − B) in mean urinary phosphate excretion, Treatment Group (A) = labelled treatment, (B) = OLC + Tenapanor",Sprague Dawley rats; [3],19.543 mg/day
same,"Mean Difference (A − B) in mean urinary phosphate excretion, Treatment Group (A) = labelled treatment, (B) = Vehicle",Sprague Dawley rats; [3],-8.510 mg/day
same,diarrhea observed in patients taking tenapanor,[2],53%

# — patent US20250228891A1, “COMBINATIONS CONTAINING OXYLANTHANUM CARBONATE FOR TREATING HYPERPHOSPHATEMIA” (UNICYCIVE THERAPEUTICS, INC., priority 2024, published 2025)
